Like-named read-outs stand apart in the source and are kept apart here.
Test system: Enterobacterales
Assay: MIC, broth microdilution, CDC/FDA Antibiotic Resistance Isolate Bank (Example 7, Tables 8, 11, 12)
Type: cell-based

Measured: MIC

CC(C)(O/N=C(\C(=O)N[C@@H]1C(=O)N2C(C(=O)[O-])=C(C[N+]3(CCNC(=O)c4ccc(O)c(O)c4Cl)CCCC3)CS[C@H]12)c1csc(N)n1)C(=O)O [Cefiderocol, cefiderocol]
0.5 µg/mL: Escherichia coli, KUB No. 5616, AR Bank # 119, read-out: MIC | Escherichia coli, KUB No. 5766, AR Bank # 370, read-out: MIC | Escherichia coli, KUB No. 5767, AR Bank # 371, read-out: MIC | Escherichia coli, KUB No. 5779, AR Bank # 433, read-out: MIC | Escherichia coli, KUB No. 5780, AR Bank # 434, read-out: MIC | Klebsiella oxytoca, KUB No. 5771, AR Bank # 375, read-out: MIC | Klebsiella pnemnonine, KUB No. 5758, AR Bank # 362, read-out: MIC | Klebsiella pneumoniae, KUB No. 5537, AR Bank# 40, read-out: MIC | Klebsiella pneumoniae, KUB No. 5541, AR Bank# 44, read-out: MIC | Klebsiella pneumoniae, KUB No. 5563, AR Bank # 66, read-out: MIC | Klebsiella pneumoniae, KUB No. 5606, AR Bank # 109, read-out: MIC | Klebsiella pneumoniae, KUB No. 5610, AR Bank # 113, read-out: MIC
≤0.0 µg/mL: Escherichia, KUB No. 57, AR Bank # 436 (row cut off)
2 µg/mL: Escherichia coli, KUB No. 5615, AR Bank # 118, read-out: MIC | Escherichia coli, KUB No. 5625, AR Bank # 128, read-out: MIC | Escherichia coli, KUB No. 5634, AR Bank # 137, read-out: MIC | Klebsiella pneumoniae, KUB No. 5538, AR Bank# 41, read-out: MIC | Klebsiella pneumoniae, KUB No. 5565, AR Bank # 68, read-out: MIC | Klebsiella pneumoniae, KUB No. 5577, AR Bank # 80, read-out: MIC | Klebsiella pneumoniae, KUB No. 5609, AR Bank # 112, read-out: MIC
1 µg/mL: Escherichia coli, KUB No. 5601, AR Bank # 104, read-out: MIC | Escherichia coli, KUB No. 5768, AR Bank # 372, read-out: MIC | Klebsiella aerogenes, Enterobacter aerogenes, KUB No. 5658, AR Bank # 161, read-out: MIC | Klebsiella aerogenes, Enterobacter aerogenes, KUB No. 5777, AR Bank # 431, read-out: MIC | Klebsiella pneumoniae, KUB No. 5546, AR Bank# 49, read-out: MIC | Klebsiella pneumoniae, KUB No. 5584, AR Bank # 87, read-out: MIC | Klebsiella pneumoniae, KUB No. 5594, AR Bank # 97, read-out: MIC | Klebsiella pneumoniae, KUB No. 5603, AR Bank # 106, read-out: MIC
0.12 µg/mL: Escherichia coli, KUB No. 5774, AR Bank # 378, read-out: MIC | Klebsiella oxytoca, KUB No. 5644, AR Bank # 147, read-out: MIC | Klebsiella pneumoniae, KUB No. 5536, AR Bank# 39, read-out: MIC | Klebsiella pneumoniae, KUB No. 5576, AR Bank # 79, read-out: MIC | Klebsiella pneumoniae, KUB No. 5595, AR Bank # 98, read-out: MIC
8 µg/mL: Escherichia coli, KUB No. 5659, AR Bank # 162, read-out: MIC
4 µg/mL: Escherichia coli, KUB No. 5647, AR Bank # 150, read-out: MIC | Escherichia coli, KUB No. 5648, AR Bank # 151, read-out: MIC | Escherichia coli, KUB No. 5781, AR Bank # 435, read-out: MIC
0.25 µg/mL: Escherichia coli, KUB No. 5611, AR Bank # 114, read-out: MIC | Escherichia coli, KUB No. 5765, AR Bank # 369, read-out: MIC | Klebsiella pneumoniae, KUB No. 5531, AR Bank# 34, read-out: MIC | Klebsiella pneumoniae, KUB No. 5540, AR Bank# 43, read-out: MIC | Klebsiella pneumoniae, KUB No. 5543, AR Bank# 46, read-out: MIC | Klebsiella pneumoniae, KUB No. 5572, AR Bank # 75, read-out: MIC
≤ 0.06 µg/mL: Escherichia coli, KUB No. 5586, AR Bank # 89, read-out: MIC | Escherichia coli, KUB No. 5764, AR Bank # 368, read-out: MIC | Escherichia coli, KUB No. 5769, AR Bank # 373, read-out: MIC | Klebsiella aerogenes, Enterobacter aerogenes, KUB No. 5559, AR Bank # 62, read-out: MIC | Klebsiella aerogenes, Enterobacter aerogenes, KUB No. 5571, AR Bank # 74, read-out: MIC | Klebsiella oxytoca, KUB No. 5568, AR Bank # 71, read-out: MIC | Klebsiella oxytoca, KUB No. 5776, AR Bank # 380, read-out: MIC | Klebsiella ozaenae, KUB No. 5593, AR Bank # 96, read-out: MIC | Klebsiella pneumoniae, KUB No. 5573, AR Bank # 76, read-out: MIC | Klebsiella pneumoniae, KUB No. 5604, AR Bank # 107, read-out: MIC
16 µg/mL: Escherichia coli, KUB No. 5646, AR Bank # 149, read-out: MIC
< 0.06 µg/mL: Escherichia coli, KUB No. 5770, AR Bank # 374, read-out: MIC

From EP4635500A1, “THERAPEUTIC AGENT FOR BACTERIAL INFECTION” (Sumitomo Pharma Co., Ltd., priority 2022, dated 2024)
